According to US20230285347A1, “Preterm Labour with Prostaglandin E2 Receptor Agonists” (IMPERIAL COLLEGE INNOVATIONS LIMITED, priority 2020, published 2023):

Legend:
Assay type in all cases: cell-based
[1] = target: T1, EP2 (Homo sapiens, UniProt P43116); experiment: Intracellular calcium response in primary myometrial cells; settings: PGN9856i 100 nM, FIG. 6
T1 construct: primary human myocytes cultured from term pregnant, non-labouring, myometrium; endogenous in cells; host or cells: primary human myometrial cells (myocytes) cultured from pregnant myometrium
T1 sequence (P43116 whole entry): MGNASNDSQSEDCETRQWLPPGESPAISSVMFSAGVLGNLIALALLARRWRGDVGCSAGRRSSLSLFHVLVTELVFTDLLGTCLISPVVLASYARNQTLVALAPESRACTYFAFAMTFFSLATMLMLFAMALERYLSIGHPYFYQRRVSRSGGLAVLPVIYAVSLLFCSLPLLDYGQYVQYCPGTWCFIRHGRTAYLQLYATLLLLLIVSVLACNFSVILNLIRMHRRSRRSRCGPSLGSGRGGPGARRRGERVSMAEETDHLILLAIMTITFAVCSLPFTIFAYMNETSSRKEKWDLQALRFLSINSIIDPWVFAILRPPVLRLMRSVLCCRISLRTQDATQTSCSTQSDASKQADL
Text: One-way ANOVA with Dunnet's multiple comparison post-hoc test: **p<0.01, and (B) calcium intensity traces over time from representative cells from (A). PGN9856i is unable to elicit intracellular calcium release in primary myometrial cells.
(§1) In the myometrium EP2 is an important regulator of parturition. To assess if PGN9856i, butaprost and AH13205 induce similar second messenger profiles in the myometrium as HEK 293 cells, primary human myocytes cultured from term pregnant, non-labouring, myometrium, were treated with each ligand and intracellular cAMP, calcium and PGE2 release was measured.
Myometrial tissue was acquired at St. Mary's hospital, Queen Charlotte and Chelsea hospital and Charing Cross hospital, London. Tissue was obtained from women provided with informed written consent with the approval from the Riverside Research Ethics Committee (RREC 3357, 1997-5089, 19/LO/1657) and experiments were carried out under the committee's guidelines and recommendations. Tissues were obtained from term (38+0-40 weeks gestation) pregnant women undergoing elective caesarean from the upper margin of the incision made at the lower segment of the uterus, before or after the onset of labor. Tissues taken from women in early labour (<3 cm cervical dilation) or late labour (>3 cm cervical dilation) with/without induction with syntocinon, an oxytocin analogue. […]

[2] = target: T1, EP2; experiment: Intracellular cAMP in primary human myocytes from term pregnant non-labouring myometrium; settings: butaprost 10 μM, AH13205 10 μM, PGN9856i 100 nM, FIG. 5
Protocol: as §1
Myometrial tissue was acquired at St. Mary's hospital, Queen Charlotte and Chelsea hospital and Charing Cross hospital, London. Tissue was obtained from women provided with informed written consent with the approval from the Riverside Research Ethics Committee (RREC 3357, 1997-5089, 19/LO/1657) and experiments were carried out under the committee's guidelines and recommendations. Tissues were obtained from term (38+0-40 weeks gestation) pregnant women undergoing elective caesarean from the upper margin of the incision made at the lower segment of the uterus, before or after the onset of labor. Tissues taken from women in early labour (<3 cm cervical dilation) or late labour (>3 cm cervical dilation) with/without induction with syntocinon, an oxytocin analogue. Tissue was only taken from uncomplicated, singleton pregnancies.
Tissue was stored at 4° C. in phosphate buffered saline until fine dissection with scalpels and dissociation at 37° C. for 1 hour in a sterile-filtered mix of Dulbecco's modified Eagle's medium (DMEM) (Sigma Aldrich)/Ham's F-12 Nutrient Mixture (Sigma Aldrich) and serum-free DMEM (Sigma Aldrich) (1:1 v/v) containing collagenase 1A (Sigma Aldrich)(1 mg/ml), collagenase X (Sigma Aldrich)(1 mg/ml) and bovine serum albumin (Sigma Aldrich) (2 mg/ml). […]
Confluent myometrial cells were treated with/without OT (100 nM) for 1 hour before 3 PBS washes and the addition of […] IBMX (3-isobutyl-1-methylxanthine) in PBS for 5 minutes at 37° C. […] Lysates were normalized to protein concentration determined by Coomassie (Bradford) Protein Assay Kit and analysed as per manufacturers' protocol (Cisbio Gαs dynamic assay) using a PHERAstar FSX.

[3] = target: T1, EP2; experiment: cAMP in non-labouring myometrial cells with/without oxytocin pre-treatment; settings: OT pre-treatment 1 hour, 100 nM; butaprost 10 μM, AH13205 10 μM, PGN9856i 100 nM; FIG. 10
Protocol: Myometrial cells with/without oxytocin (OT) pre-treatment (1 hour, 100 nM) were treated with IBMX (5 minutes, 0.5 mM) before 1 minute stimulation with IBMX with/without either DMSO, butaprost (10 μM), AH13205 (10 μM) or PGN9856i (100 nM). cAMP concentrations were normalised to protein. Each patient's data normalised to butaprost response and shown as mean±SEM, n=6. One-sample t-test: #p<0.05. ##p<0.01. One-way ANOVA with Sidak's multiple comparison post-hoc test: **p<0.01.
(§2) Confluent myometrial cells were treated with/without OT (100 nM) for 1 hour before 3 PBS washes and the addition of […] IBMX (3-isobutyl-1-methylxanthine) in PBS for 5 minutes at 37° C. This was exchanged for 0.5 μM IBMX in PBS plus either DMSO, butaprost (10 μM), AH13205 (10 μM) or PGN9856i (100 nM) for […]. Cells were lysed in Cisbio cAMP lysis buffer with 0.2% TritonX-100 and centrifuged for 15 minutes at 16,000 g. Lysates were normalized to protein concentration determined by Coomassie (Bradford) Protein Assay Kit and analysed as per manufacturers' protocol (Cisbio Gαs dynamic assay) using a PHERAstar FSX.

[4] = target: T2, human FLAG-tagged EP2 (Homo sapiens, UniProt P43116); experiment: cAMP induction in HEK 293 cells stably expressing EP2 (Gαs readout); settings: for cAMP efficacy at the maximal dose of each ligand: HEK 293 EP2 cells, 5 minutes of stimulation, no significant difference between ligands, FIG. 2
T2 construct: FLAG; expressed in transfected cells
T2 sequence (P43116 whole entry): as above
Protocol: EP2 is a dually coupled GPCR capable of activating downstream signalling pathways via Gαs (anti-labour inducing) and Gαq/11 (pro-labour inducing).
HEK 293 cells were maintained in DMEM (Dulbecco's Modified Eagle Medium) containing 10% fetal bovine serum and 100 μ/ml penicillin-streptomycin, and cultured in 75 cm flasks at 37° C. in 95% air and 5% CO2. Cells at 95% confluency were passaged using 0.25% trypsin with 0.02% EDTA in phosphate-buffered saline (PBS).
as §2

[5] = target: T1, EP2; experiment: COX-2 protein by western blot in myometrial cells from different labouring groups; settings: butaprost 10 μM, 6 hours
Protocol: L=non-labouring, L+E=early stage spontaneous labour, L+L=late stage spontaneous labour, L+SE=early stage induced labour, L+SL=late stage induced labour. (A) COX-2 protein (70 kB) determined by western blot and normalised to GAPDH protein (38 kB) in different labouring groups following 6 hour butaprost (10 μM) stimulation. Data shown as mean±SEM, n=5. Groups compared using one-way ANOVA with Dunnett's multiple comparison post-hoc test: *p<0.05. (B) Representative western blot for FIG. 9A.
Myometrial cells taken from women in different labouring groups were treated for 6-hours with butaprost. Confluent myometrial cells were lysed in RIPA buffer containing 1% Triton x-100, 1% Sodium deoxycholate, 0.1% SDS, 150 mM NaCl, 10 mM Tris, 1 mM EDTA plus 1 mM sodium orthovanadate and one Pierce EDTA-Free protease inhibitor mini tablet. 20-40 μg of lysate as determined via Bradford assay plus Laemmli buffer (0.5M pH 6.8 Tris, 10% SDS, 1% Bromophenol blue, 2% B-ME, 20% Glycerol) were separated with 1×SDS running buffer at 140V on SDS-PAGE gels polymerized with TEMED and ammonium persulfate: separating gel (40% poly, 1M pH 8.8 Tris, 10% SDS), […] (40% poly, 1M Tris (pH 6.8), 10% SDS). Proteins were transferred onto nitrocellulose membranes before blocking in 5% Milk TBS-T for 30 minutes and incubated overnight at 4° C. with primary antibody and blocking buffer (1:1000). Membranes were then incubated in TBS-T with appropriate secondary antibody for 1-3 hours (1:2000) before signal detection using HRP substrate and chemiluminescent imager (ImageQuant LAS 4000).

| activation of calcium pathway [1] | effect of OTR activation on ligand's ability to increase intracellular cAMP [3] | cAMP efficacy at the maximal dose of each ligand [4] | Compound | release of intracellular cAMP [2] | EC50 for EP2 agonist-mediated induction of cAMP (relative potency) ([4]; HEK 293 cells stably expressing human FLAG-tagged EP2, dose-response curves, FIG. 1) | agonist-induced COX-2 in early stage labouring groups ([5]; all early stage labouring groups) | agonist-induced COX-2 increase in late stage labouring groups ([5]; either late stage labouring group) | agonist-induced increases in COX-2 across groups ([5]; non-labouring and labouring groups, normalised to GAPDH) |
| --- | --- | --- | --- | --- | --- | --- | --- | --- |
| unable to activate calcium | significantly reduced | equally efficacious | CC(C)OC(=O)COc1cccc(NC(=O)c2cc(-c3cccc(F)c3)ccc2F)c1 [PGN9856i, propan-2-yl 2-(3-{3′,4-difluoro-[1,1′-biphenyl]-3-amido}phenoxy)acetate] | able to elicit release of intracellular cAMP | greatest potency, by three orders of magnitude | – | – | – |
| – | significantly reduced | equally efficacious | CCCC1([C@H](O)C/C=C/[C@H]2[C@H](O)CC(=O)[C@@H]2CCCCCCC(=O)OC)CCC1 [butaprost] | able to elicit release of intracellular cAMP | – | significant increase in all early stage labouring groups | not apparent in either late stage labouring group | maintained across non-labouring and labouring groups |
